Data: US20260151486A1, “PRESSURIZED NANOEMULSION” (BIOFRONTERA BIOSCIENCE GMBH, priority 2023, published 2026)

Assays:
[1] = room temperature; cited from earlier work
[2] = TC content over storage time in nanoemulsion formulation; type: physicochemical; settings: in BF220 with PX=4%, 0.1% TC
Protocol: Nanoemulsion formulations BF220 TC=0.1% glass and BF220 TC=0.1% foam were prepared as described in Example 6. The nanoemulsion formulations were stored at 2-8° C. and 25° C. The content of TC was determined at 0 (starting point) and various time points up to 48 months storage period.

[3] = ALA content over storage time in nanoemulsion formulation; type: physicochemical; settings: in BF200 with PX=2%, 3% 5-ALA; after 36 months storage at 2-25° C.
Protocol: Nanoemulsion formulations BF200 PX=2% glass and BF200 PX=2% foam were prepared as described in Example 5. The nanoemulsion formulations were stored at 25° C. and 2-8° C. The content of ALA was determined at 0 (starting point) and various time points during the 36 months storage period.

Q: What does the source list for `C=CC[C@@H]1/C=C(\C)C[C@H](C)C[C@H](OC)[C@H]2O[C@@](O)(C(=O)C(=O)N3CCCC[C@H]3C(=O)O[C@H](/C(C)=C/[C@@H]3CC[C@@H](O)[C@H](OC)C3)[C@H](C)[C@@H](O)CC1=O)[C@H](C)C[C@@H]2OC` [TC, Tacrolimus]?
A: stability in aqueous formulations [1]: approx. 90 days; TC content ([2]; after 6 months at 25° C.): at least 95%; TC content ([2]; after 48 months storage at 2-8° C.): at least 95%

Q: For `NCC(=O)CCC(=O)O` [ALA, 5-aminolevulinic acid], which ALA content [3] is on record?
A: Its ALA content is “at least 90%”.
